Test results taken from ChEMBL document CHEMBL1759905, “Nonsteroidal 2,3-dihydroquinoline glucocorticoid receptor agonists with reduced PEPCK activation” (Bioorg Med Chem Lett, 2011).
pEC50, pIC50, pKi: −log10 of the molar value.

How the values were obtained:
Glucocorticoid receptor [1] = molecular target: T1, Glucocorticoid receptor (Homo sapiens, UniProt P04150); experiment: Transrepression activity at glucocorticoid receptor in human HepG2 cells assessed as inhibition of TNFalpha/IL1beta-stimulated NFkappaB-dependent E-selectin repression by luciferase reporter gene assay; format: cell-based
T1 sequence (P04150 whole entry): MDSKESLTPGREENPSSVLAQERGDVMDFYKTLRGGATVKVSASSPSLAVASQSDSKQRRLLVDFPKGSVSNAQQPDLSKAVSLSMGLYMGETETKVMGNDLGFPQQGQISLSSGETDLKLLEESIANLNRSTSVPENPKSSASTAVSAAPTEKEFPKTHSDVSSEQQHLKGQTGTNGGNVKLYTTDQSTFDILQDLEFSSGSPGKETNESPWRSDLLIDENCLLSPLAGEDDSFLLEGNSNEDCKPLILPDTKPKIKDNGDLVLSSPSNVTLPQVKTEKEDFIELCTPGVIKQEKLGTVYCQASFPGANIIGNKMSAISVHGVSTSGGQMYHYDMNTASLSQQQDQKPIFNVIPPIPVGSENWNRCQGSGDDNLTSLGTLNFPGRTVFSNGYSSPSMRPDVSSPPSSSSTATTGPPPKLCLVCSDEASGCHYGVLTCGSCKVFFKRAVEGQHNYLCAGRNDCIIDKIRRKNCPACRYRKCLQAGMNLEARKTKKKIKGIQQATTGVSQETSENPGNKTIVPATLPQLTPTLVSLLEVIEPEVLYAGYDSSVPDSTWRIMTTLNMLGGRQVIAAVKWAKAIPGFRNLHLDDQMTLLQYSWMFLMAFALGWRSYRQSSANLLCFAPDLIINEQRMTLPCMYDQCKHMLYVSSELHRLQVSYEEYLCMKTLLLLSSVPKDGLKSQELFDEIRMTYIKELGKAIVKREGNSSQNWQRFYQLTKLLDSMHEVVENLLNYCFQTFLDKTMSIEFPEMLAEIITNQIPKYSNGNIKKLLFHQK

Glucocorticoid receptor [2] = molecular target: T1, Glucocorticoid receptor; experiment: Displacement of radiolabeled Dexamethasone from glucocorticoid receptor expressed in baculovirus
[3] = molecular target: T2, Glucocorticoid receptor (Homo sapiens) (UniProt P04150); experiment: Transrepression activity at glucocorticoid receptor in human HepG2 cells assessed as inhibition of TNFalpha/IL1beta-stimulated NFkappaB-dependent E-selectin repression by luciferase reporter gene assay relative to Dexamethasone; format: cell-based; set-up: scale not given: the % may be the effect or the level left
T2 sequence (whole entry): T1 sequence (P04150 whole entry)

[4] = molecular target: T2, Glucocorticoid receptor (Homo sapiens); experiment: Transrepression activity at glucocorticoid receptor in human NHDF cells assessed as inhibition of IL-1beta-stimulated AP1 dependent IL-6 repression by ELISA relative to Dexamethasone; format: cell-based; set-up: concentration or dose not given beside the values
Glucocorticoid receptor [5] = molecular target: T1, Glucocorticoid receptor; experiment: Transrepression activity at glucocorticoid receptor in human NHDF cells assessed as inhibition of IL-1beta-stimulated AP1 dependent IL-6 repression by ELISA; format: cell-based
Progesterone receptor = molecular target: T3, Progesterone receptor (Homo sapiens, UniProt P06401); experiment: Binding affinity to progesterone receptor
T3 sequence (P06401 whole entry): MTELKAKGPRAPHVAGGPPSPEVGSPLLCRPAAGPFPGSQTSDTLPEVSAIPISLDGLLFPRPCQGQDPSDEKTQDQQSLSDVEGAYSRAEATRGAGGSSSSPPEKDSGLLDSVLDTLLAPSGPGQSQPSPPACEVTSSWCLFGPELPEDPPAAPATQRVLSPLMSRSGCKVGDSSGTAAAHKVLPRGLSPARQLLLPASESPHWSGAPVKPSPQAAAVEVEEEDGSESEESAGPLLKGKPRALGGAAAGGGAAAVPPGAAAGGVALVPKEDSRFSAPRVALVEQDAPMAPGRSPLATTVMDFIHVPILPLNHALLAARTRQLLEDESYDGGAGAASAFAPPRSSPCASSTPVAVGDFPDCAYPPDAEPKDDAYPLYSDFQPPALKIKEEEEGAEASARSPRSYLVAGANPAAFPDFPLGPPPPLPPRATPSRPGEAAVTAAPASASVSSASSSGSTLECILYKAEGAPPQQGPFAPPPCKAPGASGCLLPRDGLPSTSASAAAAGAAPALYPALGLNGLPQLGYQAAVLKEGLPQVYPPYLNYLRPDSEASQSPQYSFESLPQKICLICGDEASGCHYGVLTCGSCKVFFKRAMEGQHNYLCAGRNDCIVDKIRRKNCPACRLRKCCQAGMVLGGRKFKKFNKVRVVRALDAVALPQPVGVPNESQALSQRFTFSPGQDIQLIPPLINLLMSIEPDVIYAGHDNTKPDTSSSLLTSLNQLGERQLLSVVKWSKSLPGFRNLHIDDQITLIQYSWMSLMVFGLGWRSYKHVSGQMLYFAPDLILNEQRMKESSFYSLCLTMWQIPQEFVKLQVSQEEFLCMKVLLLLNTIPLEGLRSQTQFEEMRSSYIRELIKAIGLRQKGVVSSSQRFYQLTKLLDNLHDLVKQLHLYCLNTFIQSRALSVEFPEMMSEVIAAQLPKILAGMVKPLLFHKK

Glucocorticoid receptor [6] = molecular target: T1, Glucocorticoid receptor; experiment: Agonist activity at glucocorticoid receptor in human HepG2 cells co-transfected with GRE assessed as GRE activation by luciferase reporter gene assay; format: functional, cell-based
Glucocorticoid receptor [7] = molecular target: T1, Glucocorticoid receptor; experiment: Agonist activity at glucocorticoid receptor in human HepG2 cells co-transfected with PEPCK assessed as GRE activation by luciferase reporter gene assay; format: functional, cell-based
[8] = molecular target: T2, Glucocorticoid receptor (Homo sapiens); experiment: Agonist activity at glucocorticoid receptor in human HepG2 cells co-transfected with GRE assessed as GRE activation by luciferase reporter gene assay relative to Dexamethasone; format: functional, cell-based; set-up: concentration or dose not given beside the values
[9] = molecular target: T2, Glucocorticoid receptor (Homo sapiens); experiment: Agonist activity at glucocorticoid receptor in human HepG2 cells co-transfected with PEPCK assessed as GRE activation by luciferase reporter gene assay relative to Dexamethasone; format: functional, cell-based
Androgen receptor = molecular target: T4, Androgen receptor (Homo sapiens, UniProt P10275); experiment: Binding affinity to androgen receptor
T4 sequence (P10275 whole entry): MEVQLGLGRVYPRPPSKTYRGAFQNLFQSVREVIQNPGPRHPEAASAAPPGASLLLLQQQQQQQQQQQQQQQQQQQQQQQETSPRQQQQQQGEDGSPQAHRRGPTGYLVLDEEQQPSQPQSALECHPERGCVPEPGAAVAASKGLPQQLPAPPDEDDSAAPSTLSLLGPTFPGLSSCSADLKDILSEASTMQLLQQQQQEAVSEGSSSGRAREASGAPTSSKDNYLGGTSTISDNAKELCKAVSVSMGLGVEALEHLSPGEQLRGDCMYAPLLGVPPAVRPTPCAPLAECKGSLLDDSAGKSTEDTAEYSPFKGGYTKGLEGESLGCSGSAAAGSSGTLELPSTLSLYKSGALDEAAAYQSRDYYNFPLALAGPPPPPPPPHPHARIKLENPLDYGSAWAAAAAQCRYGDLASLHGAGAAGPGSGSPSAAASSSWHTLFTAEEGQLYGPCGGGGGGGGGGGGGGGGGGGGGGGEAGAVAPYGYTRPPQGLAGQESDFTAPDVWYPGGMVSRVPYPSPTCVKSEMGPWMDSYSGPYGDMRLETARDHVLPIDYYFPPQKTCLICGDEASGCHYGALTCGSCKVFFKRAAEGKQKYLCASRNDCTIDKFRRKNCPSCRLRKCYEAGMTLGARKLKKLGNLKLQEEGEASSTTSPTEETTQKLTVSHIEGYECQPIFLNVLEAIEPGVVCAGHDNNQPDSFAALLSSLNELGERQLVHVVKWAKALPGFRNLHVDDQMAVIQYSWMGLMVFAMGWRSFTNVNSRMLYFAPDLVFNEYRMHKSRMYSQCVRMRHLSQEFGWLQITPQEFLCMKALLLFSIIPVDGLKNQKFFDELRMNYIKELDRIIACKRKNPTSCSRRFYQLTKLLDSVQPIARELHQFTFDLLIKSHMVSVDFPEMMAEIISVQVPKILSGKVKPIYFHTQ

| pIC50 (Glucocorticoid receptor [1]) | pKi (Glucocorticoid receptor [2]) | Activity [3] [%] | Activity [4] [%] | Compound | also measured |
| --- | --- | --- | --- | --- | --- |
| 8.16 | 9.40 | 91 | – | CCO/N=C1\CC(C)(C)Nc2cc(F)c(-c3cccc4cc[nH]c34)c(F)c21 | – |
| – | 6.43 | – | – | CC1(C)C/C(=N\O)c2c(cc(F)c(-c3cccc4cc[nH]c34)c2F)N1 | – |
| 8.46 | 8.15 | 93 | 57 | CC1(C)C/C(=N\OC(C)(C)C)c2c(cc(F)c(-c3cccc4cc[nH]c34)c2F)N1 | pIC50 (Glucocorticoid receptor [5]): 7.40 |
| 7.29 | 7.51 | 67 | – | Cc1c[nH]c2c(-c3c(F)cc4c(c3F)/C(=N/Oc3ccccc3)CC(C)(C)N4)cccc12 | – |
| 8.06 | 8.24 | 74 | – | Cc1c[nH]c2c(-c3c(F)cc4c(c3F)/C(=N/OCc3ccccc3)CC(C)(C)N4)cccc12 | – |
| 8.59 | 9.22 | 98 | 97 | CCO/N=C1/c2c(cc(F)c(-c3cccc4c(C)c[nH]c34)c2F)NC(C)(C)C1O (racemic) | pKi (Progesterone receptor): 7.57; pEC50 (Glucocorticoid receptor [6]): 8.82; pEC50 (Glucocorticoid receptor [7]): 6.94; Activity [8]: 138%; Activity [9]: 61%; pKi (Androgen receptor): 6.37; pIC50 (Glucocorticoid receptor [5]): 8.28 |
| 7.66 | 8.82 | 87 | – | COC(=O)C(C)(C)O/N=C1\CC(C)(C)Nc2cc(F)c(-c3cccc4c(C)c[nH]c34)c(F)c21 | – |
| – | – | – | – | C[C@]12C=CC(=O)C=C1CC[C@@H]1[C@@H]2[C@@H](O)C[C@@]2(C)[C@H]1CC[C@]2(O)C(=O)CO | Activity [8]: 129% |
| – | 5.57 | – | – | Cc1c[nH]c2c(-c3c(F)cc4c(c3F)/C(=N/OC(C)(C)C(=O)O)CC(C)(C)N4)cccc12 | – |
| 7.38 | 8.15 | 83 | – | CO/N=C1\CC(C)(C)Nc2cc(F)c(-c3cccc4cc[nH]c34)c(F)c21 | – |
| – | – | – | 90 | C[C@H]1c2c(cc(F)c(-c3cccc4cc[nH]c34)c2F)NC(C)(C)[C@@H]1O | pEC50 (Glucocorticoid receptor [7]): 7.28; Activity [8]: 138%; Activity [9]: 75% |
| 7.85 | 9.15 | 100 | 99 | CO/N=C1/c2c(cc(F)c(-c3cccc4c(Cl)c[nH]c34)c2F)NC(C)(C)C1O (stereo not drawn) | pIC50 (Glucocorticoid receptor [5]): 7.66 |
